Data as given in patent publication US20240374573A1, “IMIDAZOLE CONTAINING COMPOUNDS, DERIVATIVES THEREFORE, AND USES THEREOF” (AglaeaPharma Inc., priority 2023, published 2024).

Tests used:
[1] = target: T1, α2AAR (α2A-adrenergic receptor) (Homo sapiens, UniProt P08913); assay: α2AAR FLIPR assay (agonist activity); type: cell-based; details: FLIPR, α2AAR cell line hosted in HEK293 cells; read-out: α2A agonist activity (EC50)
T1 construct: expressed in transfected cells; host or cells: HEK293
T1 sequence (P08913 1-465): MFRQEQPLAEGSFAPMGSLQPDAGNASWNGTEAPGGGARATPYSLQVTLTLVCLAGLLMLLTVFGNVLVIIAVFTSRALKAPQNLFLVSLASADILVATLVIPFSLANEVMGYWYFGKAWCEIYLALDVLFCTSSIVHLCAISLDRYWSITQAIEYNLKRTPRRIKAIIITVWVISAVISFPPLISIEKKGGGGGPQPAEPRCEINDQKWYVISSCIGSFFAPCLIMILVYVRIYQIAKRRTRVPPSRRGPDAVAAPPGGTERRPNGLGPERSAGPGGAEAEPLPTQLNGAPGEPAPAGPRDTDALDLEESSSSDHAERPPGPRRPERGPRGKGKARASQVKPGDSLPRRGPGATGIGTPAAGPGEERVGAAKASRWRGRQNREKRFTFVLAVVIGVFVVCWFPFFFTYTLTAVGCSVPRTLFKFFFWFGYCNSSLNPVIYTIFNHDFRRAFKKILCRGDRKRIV
Method: This experimental protocol involved cell seeding and a FLIPR assay using the α2AAR (α2A-adrenergic receptor) cell line hosted in HEK293 cells. […] On Day 1, the cell seeding process started with the removal of the culture medium, followed by rinsing the cells with DPBS (21-031-CVC, Corning). […] The cells were detached, resuspended in growth media, and centrifuged at room temperature at 1000 rpm for 5 minutes. After discarding the supernatant, the cell pellet was resuspended in growth media to a concentration of 10× 10^5 cells per mL. This suspension was added to 384-well plates (19-Jul-38, Greiner) at 20 μL per well and incubated overnight at 37° C. in 5% CO2.
A 250 mM Probenecid solution was prepared in this buffer. The Fluo-4 Direct™ Loading Buffer was made by dissolving Fluo-4 Direct™ crystals (F10471, Invitrogen) in the FLIPR Assay Buffer and adding Probenecid. The buffer was then vortexed and allowed to stand for over 5 minutes, shielded from light. For the FLIPR procedure, testing compounds for agonist activite were serially diluted and transferred to a 384-well compound plate (25-Jan-39, Greiner). The cell plate was then treated with 2× Fluo-4 Direct™ loading buffer and incubated for 50 minutes at 37° C. in a 5% CO2 atmosphere, followed by 10 minutes at room temperature. Subsequently, the FLIPR assay buffer was added to the compound plate, which is then centrifuged.
The cell plate was analyzed in the FLIPR Tetra+ System for fluorescence signals. For the agonist test, reference compounds were added to the cell plates, and fluorescence was measured. The “Max-Min” calculation began from Read 1 to the maximum allowed. The data were analyzed using Prism software to calculate activation percentage for agonists and inhibition percentage for antagonists. The results were then fitted using specific models to determine EC50 for agonists.
The experimental protocol utilized various reagents and apparatus, including Penicillin/Streptomycin (100×) (SV30010, Hyclone), Poly-L-lysine hydrobromide (P1399, Sigma), and different types of 384-well plates such as the 384-Well PP 2.0 Microplate (PP-0200, LABCYTE) and 384 well Low Dead Volume Microplate (LP-0200, LABCYTE). The use of specific reference compounds like UK14304 was also integral to the assay.

[2] = target: T2, α2AAR (Homo sapiens, UniProt P08913); assay: α2AAR binding assay ([3H]-RX 821002 radioligand); details: [3H]-RX 821002 0.5 nM, HEK293 membranes; read-out: α2A affinity (Ki)
T2 construct: host or cells: HEK293 (membranes)
T2 sequence (P08913 1-465): T1 sequence (P08913 1-465)

| Structure (SMILES) | EC50 [1] | Ki [2] |
| --- | --- | --- |
| COc1ccccc1C(Cc1cccc(NS(=O)(=O)CC2CCOCC2)c1)NC1=NCCS1 (stereo not shown) [compound 515] | 50 to 250 nM | < 10 nM |
| Cc1cccc(C(c2cccc(NS(=O)(=O)CCN3CCOCC3)c2)c2c[nH]cn2)c1C (stereo not shown) [compound 94] | 50 to 250 nM | 50 to 250 nM |
| Cc1cccc(C(Cc2ccc3c(c2)OCCN3)c2c[nH]cn2)c1C (stereo not shown) [compound 235] | 10 to 50 nM | < 10 nM |
| Cc1cccc(C(Cc2ccc(NC(=O)NC3CCOC3)cc2)c2c[nH]cn2)c1C (stereo not shown) [compound 198] | 10 to 50 nM | < 10 nM |
| CC(=O)N(C)c1ccc(CC(c2c[nH]cn2)c2cccc(C)c2C)cc1 (stereo not shown) [compound 222] | 10 to 50 nM | 10 to 50 nM |
| Cc1cccc(C(Cc2ccc(S(=O)(=O)NC3COC3)cc2)c2c[nH]cn2)c1C (stereo not shown) [compound 179] | < 10 nM | < 10 nM |
| CC(=O)N1CCC(CC(=O)Nc2cccc(C(c3c[nH]cn3)c3cccc(C)c3C)c2)CC1 (stereo not shown) [compound 102] | 10 to 50 nM | 10 to 50 nM |
| Cc1cccc(C(c2cccc(NC(=O)N3CCCCC3)c2)c2c[nH]cn2)c1C (stereo not shown) [compound 180] | 10 to 50 nM | 10 to 50 nM |
| COC(=O)Nc1ccc(CC(c2c[nH]cn2)c2cccc(C)c2C)cc1 (stereo not shown) [compound 194] | 10 to 50 nM | < 10 nM |
| Cc1cccc(C(Cc2ccc(N3CCN(C)C3=O)cc2)c2c[nH]cn2)c1C (stereo not shown) [compound 243] | < 10 nM | < 10 nM |
| Cc1cccc(C(c2cccc(NC(=O)CC3CCNC3)c2)c2c[nH]cn2)c1C (stereo not shown) [compound 79] | 50 to 250 nM | 10 to 50 nM |
| Cc1cn(-c2cccc(C(c3c[nH]cn3)c3cccc(C)c3C)c2)nn1 (stereo not shown) [compound 160] | 10 to 50 nM | 10 to 50 nM |
| Cc1cccc(C(c2ccnc(C(N)=O)c2)c2c[nH]cn2)c1C (stereo not shown) [compound 31] | 10 to 50 nM | 50 to 250 nM |
| CONC(=O)c1cccc(C(c2c[nH]cn2)c2cccc(C)c2C)c1 (stereo not shown) [compound 1] | 50 to 250 nM | 50 to 250 nM |
| Cc1cccc(C(c2c[nH]cn2)c2cccc(C(=O)NCC3CCOCC3)c2F)c1C (stereo not shown) [compound 124] | 10 to 50 nM | < 10 nM |
| Cc1cccc(C(Cc2ccc(-c3cnnn3C)cc2)c2c[nH]cn2)c1C (stereo not shown) [compound 209] | 10 to 50 nM | < 10 nM |
| CCOP(=O)(OCC)c1cccc(C(c2c[nH]cn2)c2cccc(C)c2C)c1 (stereo not shown) [compound 126] | 10 to 50 nM | < 10 nM |
| CNS(=O)(=O)c1ccc(CC(Oc2c(Cl)cccc2Cl)C2=NCCN2)cc1 (stereo not shown) [compound 519] | 50 to 250 nM | 10 to 50 nM |
| Cc1cccc(C(Cc2ccc(C(=O)O)c(F)c2)c2c[nH]cn2)c1C (stereo not shown) [compound 197] | 10 to 50 nM | 50 to 250 nM |
| Cc1cccc(C(Cc2ccc(C(=O)NCC(=O)O)cc2)c2c[nH]cn2)c1C (stereo not shown) [compound 229] | 10 to 50 nM | 50 to 250 nM |
| Cc1cccc(C(c2cccc(NC(=O)CCN3CCNCC3)c2)c2c[nH]cn2)c1C (stereo not shown) [compound 90] | 50 to 250 nM | 50 to 250 nM |
| Cc1cccc(C(c2cccc(NC(=O)CC3CCCOC3)c2)c2c[nH]cn2)c1C (stereo not shown) [compound 104] | 10 to 50 nM | < 10 nM |
| Cc1cccc(C(Cc2ccc(C(=O)O)cc2)c2c[nH]cn2)c1C (stereo not shown) [compound 175] | 10 to 50 nM | 250 to 1000 nM |
| CC(=O)Nc1ccc(CC(c2c[nH]cn2)c2cccc(C)c2C)cn1 (stereo not shown) [compound 248] | 10 to 50 nM | 50 to 250 nM |
| Cc1cccc(C(Cc2ccc(NC(=O)C3CCO3)cc2)c2c[nH]cn2)c1C (stereo not shown) [compound 234] | 10 to 50 nM | < 10 nM |
| Cc1cccc(C(Cc2ccc(-c3nnn(C)n3)cc2)c2c[nH]cn2)c1C (stereo not shown) [compound 241] | 10 to 50 nM | 10 to 50 nM |
| Cc1cccc(C(Cc2ccc(NC(=O)CC3CCCCC3)cc2)c2c[nH]cn2)c1C (stereo not shown) [compound 181] | 50 to 250 nM | < 10 nM |

| Structure (SMILES) | EC50 [1] | Ki [2] |
| --- | --- | --- |
| Cc1cccc(C(Cc2ccc(C(N)=O)c(F)c2)c2c[nH]cn2)c1C (racemic) [compound 156] | < 10 nM | < 10 nM |
| Cc1cccc(C(c2cccc(NS(C)(=O)=O)c2)c2c[nH]cn2)c1C (stereo not shown) [compound 29] | 10 to 50 nM | < 10 nM |
| Cc1cccc(C(Cc2ccc(C(=O)O)c(O)c2)c2c[nH]cn2)c1C (stereo not shown) [compound 218] | 10 to 50 nM | 50 to 250 nM |
| COCC(=O)Nc1ccc(CC(c2c[nH]cn2)c2cccc(C)c2C)cc1 (stereo not shown) [compound 195] | 10 to 50 nM | < 10 nM |
| Cc1cccc(C(c2c[nH]cn2)c2cccc(NS(C)(=O)=O)c2F)c1C (stereo not shown) [compound 51] | 50 to 250 nM | 10 to 50 nM |
| Cc1cccc(C(c2cccc(NC(=O)CC3CCS(=O)(=O)CC3)c2)c2c[nH]cn2)c1C (stereo not shown) [compound 117] | < 10 nM | 10 to 50 nM |
| Cc1cccc(C(c2c[nH]cn2)c2cccc(C(N)=O)c2F)c1C (stereo not shown) [compound 27] | 10 to 50 nM | < 10 nM |
| Cc1cccc(C(COCCOCCOCCNS(C)(=O)=O)c2c[nH]cn2)c1C (stereo not shown) [compound 26] | 10 to 50 nM | 50 to 250 nM |
| CONC(=O)c1cccc(CC(NC2=NCCS2)c2cccc(Cl)c2)c1 (stereo not shown) [compound 506] | 50 to 250 nM | < 10 nM |
| Cc1cccc(C(c2c[nH]cn2)c2cccc(C(=O)NOC3CCOCC3)n2)c1C (stereo not shown) [compound 152] | 10 to 50 nM | < 10 nM |
| Cc1cccc(C(Cc2ccc(OCC(=O)O)cc2)c2c[nH]cn2)c1C (stereo not shown) [compound 239] | 10 to 50 nM | 50 to 250 nM |
| Cc1cccc(C(c2cccc(NC(=O)CC#N)c2)c2c[nH]cn2)c1C (single isomer, unassigned) [10-B] | 10 to 50 nM | 10 to 50 nM |
| CC(=O)Nc1ccc(CC(c2c[nH]cn2)c2cccc(C)c2C)cc1F (stereo not shown) [compound 193] | 10 to 50 nM | < 10 nM |
| Cc1cccc(C(c2cccc(NC(=O)CCN3CCOCC3)c2)c2c[nH]cn2)c1C (stereo not shown) [compound 70] | 10 to 50 nM | 10 to 50 nM |
| Cc1cccc(C(Cc2ccc(NC(=O)C3CCOCC3)nc2)c2c[nH]cn2)c1C (stereo not shown) [compound 242] | 10 to 50 nM | 50 to 250 nM |
| Cc1cccc(C(c2cccc(NC(=O)CC3CCCCO3)c2)c2c[nH]cn2)c1C (stereo not shown) [compound 96] | 10 to 50 nM | < 10 nM |
| Cc1cccc(C(c2cccc(NC(=O)CCCN3CCOCC3)c2)c2c[nH]cn2)c1C (stereo not shown) [compound 88] | 50 to 250 nM | 10 to 50 nM |
| CONC(=O)c1cccc(CC(NC2=NCCO2)c2ccccc2OC)c1 (stereo not shown) [compound 503, 3-[2-(4,5-dihydro-1,3-oxazol-2-ylamino)-2-(2-methoxyphenyl)ethyl]-N-methoxybenzamide] | 50 to 250 nM | < 10 nM |
| Cc1cccc(C(Cc2ccc3c(c2)NCCN3)c2c[nH]cn2)c1C (stereo not shown) [compound 246] | 10 to 50 nM | 10 to 50 nM |
| Cc1cccc(C(Cc2ccc(-c3nnn[nH]3)cc2)c2c[nH]cn2)c1C (stereo not shown) [compound 210] | 50 to 250 nM | 10 to 50 nM |
| Cc1cccc(C(c2cccc(NS(C)(=O)=O)c2)c2c[nH]cn2)c1C (single isomer, unassigned) [44-B] | 10 to 50 nM | < 10 nM |
| Cc1cccc(C(Cc2ccc(C(=O)NC3CCOCC3)c(O)c2)c2c[nH]cn2)c1C (stereo not shown) [compound 233] | 10 to 50 nM | 10 to 50 nM |
| Cc1cccc(C(Cc2ccc(NC3CCOCC3)cc2)c2c[nH]cn2)c1C (stereo not shown) [compound 207] | 10 to 50 nM | < 10 nM |
| Cc1cccc(C(c2cccc(NS(=O)(=O)CC3CCOC3)c2)c2c[nH]cn2)c1C (stereo not shown) [compound 86] | 10 to 50 nM | < 10 nM |
| Cc1cccc(C(Cc2ccc(C(C)C(=O)O)cc2)c2c[nH]cn2)c1C (stereo not shown) [compound 174] | 10 to 50 nM | 50 to 250 nM |
| Cc1cccc(C(c2cccc(-c3cnnn3C3CCOCC3)c2)c2c[nH]cn2)c1C (stereo not shown) [compound 220] | < 10 nM | < 10 nM |
